# From patent US8674118B2, “Compounds and methods for the treatment or prevention of flavivirus infections” (priority 2005, dated 2014)
# Where a name gives a salt, the structure may show the parent alone.
# System: HCV RNA replication (replicon cell lines Huh-7, 5.2 and ET)
# Assay: Cell-Based Luciferase Reporter HCV RNA Replication Assay
# Conditions: Hepatitis C virus, Huh-7, 96 h, Huh-7, 5.2 or ET replicon cells, luciferase counts after 4 days incubation; read-out: IC50
row,SMILES,IC50
1,"COCC(COC)N(c1cc(C2=CCCCC2)sc1C(=O)O)C(=O)[C@H]1CC[C@H](C)CC1 [Compound 111, 5-cyclohex-1-enyl-3-[(2-methoxy-1-methoxymethyl-ethyl)-(trans-4-methyl-cyclohexanecarbonyl)-amino]-thiophene-2-carboxylic acid]",< 5 µM
2,"COC1CCC(N(C(=O)C2CCC(C)CC2)c2cc(C3CCCCC3)sc2C(=O)O)CC1 (stereo not drawn) [Compound 112, 5-cyclohexyl-3-[(4-trans-methoxy-cyclohexyl)-(4-trans-methyl-cyclohexanecarbonyl)-amino]-thiophene-2-carboxylic acid]",< 5 µM
3,"COC1CCC(N(C(=O)C2CCC(C)CC2)c2cc(C3CCC(=O)CC3)sc2C(=O)O)CC1 (stereo not drawn) [Compound 113, 3-[(4-trans-methoxy-cyclohexyl)-(4-trans-methyl-cyclohexanecarbonyl)-amino]-5-(4-oxo-cyclohexyl)-thiophene-2-carboxylic acid]",< 5 µM
4,"COCOC1CCC(N(C(=O)C2CCC(C)CC2)c2cc(C3=CCC(C)(C)CC3)sc2C(=O)O)CC1 (stereo not drawn) [Compound 114, 5-(4,4-dimethyl-cyclohex-1-enyl)-3-[(4-trans-methoxymethoxy-cyclohexyl)-(4-trans-methyl-cyclohexanecarbonyl)-amino]-thiophene-2-carboxylic acid]",< 5 µM
5,"CC1CCC(C(=O)N(c2cc(C3=CCCCC3)sc2C(=O)O)C2CC=CCC2)CC1 (stereo not drawn) [Compound 115, RS-5-cyclohex-1-enyl-3-[cyclohex-3-enyl-(4-trans-methyl-cyclohexanecarbonyl)-amino]-thiophene-2-carboxylic acid]",< 5 µM
6,"COCOC1CCC(N(C(=O)C2CCC(C)CC2)c2cc(C3CCC(C)(C)CC3)sc2C(=O)O)CC1 (stereo not drawn) [Compound 116, 5-(4,4-dimethyl-cyclohexyl)-3-[(4-trans-methoxymethoxy-cyclohexyl)-(4-trans-methyl-cyclohexanecarbonyl)-amino]-thiophene-2-carboxylic acid]",< 5 µM
7,"CC1(C)CCC(c2cc(N(C(=O)[C@H]3CC[C@H](C)CC3)[C@H]3CC[C@@H](n4cncn4)CC3)c(C(=O)O)s2)CC1 [Compound 117, 5-(4,4-dimethyl-cyclohexyl)-3-[(trans-4-methyl-cyclohexanecarbonyl)-(cis-4-[1,2,4]triazol-1-yl-cyclohexyl)-amino]-thiophene-2-carboxylic acid; hydrochloride]",< 5 µM
8,"CC1CCC(C(=O)N(c2cc(C3CCC(C)(C)CC3)sc2C(=O)O)C2CCC(n3cncn3)CC2)CC1 (stereo not drawn) [Compound 118, 5-(4,4-dimethyl-cyclohexyl)-3-[(trans-4-methyl-cyclohexanecarbonyl)-(trans-4-[1,2,4]triazol-1-cyclohexyl)-amino]-thiophene-2-carboxylic acid; hydrochloride]",< 5 µM
9,"COC1CCC(N(C(=O)C2CCC(C)CC2)c2cc(C3CCC(F)(F)CC3)sc2C(=O)O)CC1 (stereo not drawn) [Compound 122, 5-(4,4-difluoro-cyclohexyl)-3-[(4-trans-methoxy-cyclohexyl)-(4-trans-methyl-cyclohexanecarbonyl)-amino]-thiophene-2-carboxylic acid]",< 5 µM
10,"COC1CCC(N(C(=O)C2CCC(C)CC2)c2cc(C3CC=C(F)CC3)sc2C(=O)O)CC1 (stereo not drawn) [Compound 123, RS-5-(4-fluoro-cyclohex-3-enyl)-3-[(4-trans-methoxy-cyclohexyl)-(4-trans-methyl-cyclohexanecarbonyl)-amino]-thiophene-2-carboxylic acid]",< 5 µM
11,"CCOCO[C@H]1CC[C@H](N(c2cc(C3=CCCCC3)sc2C(=O)O)C(=O)[C@H]2CC[C@H](C)CC2)CC1 [Compound 125, 5-cyclohex-1-enyl-3-[(trans-4-ethoxymethoxy-cyclohexyl)-(trans-4-methyl-cyclohexanecarbonyl)-amino]-thiophene-2-carboxylic acid]",< 5 µM
12,"CC1CCC(C(=O)N(c2cc(C3=CCCCC3)sc2C(=O)O)C2CCN(c3ccccc3)CC2)CC1 (stereo not drawn) [Compound 127, 5-cyclohex-1-enyl-3-[(trams, 4-methyl-cyclohexanecarbonyl)-(1-phenyl-piperidin-4-yl)-amino]-thiophene-2-carboxylic acid]",< 5 µM
13,"CCN1CC2(CCC(N(C(=O)C3CCC(C)CC3)c3cc(C4=CCCCC4)sc3C(=O)O)CC2)CC1=O (stereo not drawn) [Compound 129, 5-cyclohex-1-enyl-3-[trans(2-ethyl-33-oxo-2-aza-spiro[4.5]dec-8-yl)-(trans-4-methylcyclohexanecarbonyl)-amino]-thiophene-2-carboxylic acid]",< 5 µM
14,"CC(C)C(=O)N[C@H]1CC[C@@H](N(c2cc(C3=CCCCC3)sc2C(=O)O)C(=O)[C@H]2CC[C@H](C)CC2)CC1 [Compound 133, 5-cyclohex-1-enyl-3-[(cis-4-isobutyrylamino-cyclohexyl)-(trans-4-methyl-cyclohexanecarbonyl)-amino]-thiophene-2-carboxylic acid]",< 5 µM
15,"CC(C)C(=O)N[C@H]1CC[C@H](N(c2cc(C3=CCCCC3)sc2C(=O)O)C(=O)[C@H]2CC[C@H](C)CC2)CC1 [Compound 134, 5-cyclohex-1-enyl-3-[(trans-4-isobutyrylamino-cyclohexyl)-(trans-4-methyl-cyclohexanecarbonyl)-amino]-thiophene-2-carboxylic acid]",< 5 µM
16,"CC1(C)CCC(c2cc(N(C(=O)[C@H]3CC[C@H](C)CC3)[C@H]3CC[C@H](n4ccnn4)CC3)c(C(=O)O)s2)CC1 [Compound 135, 5-(4,4-dimethyl-cyclohexyl)-3-[(trans-4-methyl-cyclohexanecarbonyl)-(trans-4-[1,2,3]triazol-1-yl-cyclohexyl)-amino]-thiophene-2-carboxylic acid]",< 5 µM
17,"C[C@H]1CC[C@H](C(=O)N(c2ccc3c(c2)OCO3)c2cc(C3=CCCCC3)sc2C(=O)O)CC1 [Compound 136, 3-[benzo[1,3]dioxol-5-yl-(trans-4-methyl-cyclohexanecarbonyl)-amino]-5-cyclohex-1-enyl-thiophene-2-carboxylic acid]",< 5 µM
18,"COC1CCC(N(C(=O)C2CCC(C)CC2)c2cc(C3CCC(F)CC3)sc2C(=O)O)CC1 (stereo not drawn) [Compound 137, 5-(4-ciz-trans-fluoro-cyclohexyl)-3-[(4-trans-methoxy-cyclohexyl)-(4-trans-methyl-cyclohexanecarbonyl)-amino]-thiophene-2-carboxylic acid]",< 5 µM
19,"COC1CCC(N(C(=O)C2CCC(C)CC2)c2cc(C3=CCCC(C)(C)C3)sc2C(=O)O)CC1 (stereo not drawn) [Compound 138, 5-(5,5-dimethyl-cyclohex-1-enyl)-3-[(4-trans-methoxy-cyclohexyl)-(4-trans-methyl-cyclohexanecarbonyl)-amino]-thiophene-2-carboxylic acid]",< 5 µM
20,"CC(C)C(=O)N1CCC(N(c2cc(C3=CCCCC3)sc2C(=O)O)C(=O)[C@H]2CC[C@H](C)CC2)CC1 [Compound 141, 5-Cyclohex-1-enyl-3-[(1-isobutyryl-piperidin-4-yl)-(trans-4-methylcyclohexanecarbonyl)-amino]-thiophene-2-carboxylic acid]",< 5 µM
21,"CSCO[C@H]1CC[C@H](N(c2cc(C3=CCCCC3)sc2C(=O)O)C(=O)[C@H]2CC[C@H](C)CC2)CC1 [Compound 142, 5-cyclohex-1-enyl-3-[(trans-4-methyl-cyclohexanecarbonyl)-(trans-4-methylsulfanylmethoxy-cyclohexyl)-amino]-thiophene-2-carboxylic acid]",< 5 µM

# Same assay, conditions: Huh-7, 5.2 or ET replicon cells, luciferase counts after 4 days incubation; read-out: IC50
row,SMILES,IC50
1,"CC1CCC(C(=O)N(c2cc(C3=CCCCC3)sc2C(=O)O)C2CCC(n3ccnn3)CC2)CC1 (stereo not drawn) [Compound 105, 5-cyclohex-1-enyl-3-[(trans-4-methyl-cyclohexanecarbonyl)-(trans-4-[1,2,3]triazol-1-cyclohexyl)-amino]-thiophene-2-carboxylic acid]",< 5 µM
2,"CC1CCC(C(=O)N(c2cc(C3=CCCCC3)sc2C(=O)O)C2CCC(C)(C#N)CC2)CC1 (stereo not drawn) [Compound 106, 3-[(trans-4-cyano-4-methyl-cyclohexyl)-(trans-4-methylcyclohexanecarbonyl)-amino]-5-cyclohex-1-enyl-thiophene-2-carboxylic acid]",< 5 µM
3,"CC1CCC(C(=O)N(c2cc(C3=CCCCC3)sc2C(=O)O)C2CCC3(CC2)CC(=O)N(C)C3)CC1 (stereo not drawn) [Compound 128, 5-cyclohex-1-enyl-3-[(trans-4-methyl-cyclohexanecarbonyl)-trans(2-methyl-3-oxo-2-aza-spiro[4.5]dec-8-yl)-amino]-thiophene-2-carboxylic acid]",< 5 µM
4,"CCN1CC2(CCC(N(C(=O)C3CCC(C)CC3)c3cc(C4=CCCCC4)sc3C(=O)O)CC2)CC1=O (stereo not drawn) [Compound 130, 5-cyclohex-1-enyl-3-[cis(2-ethyl-3-oxo-2-aza-spiro[4.5]dec-8-yl)-(trans-4-methylcyclohexanecarbonyl)-amino]-thiophene-2-carboxylic acid]",< 5 µM
5,"COCC1CCC(N(C(=O)C2CCC(C)CC2)c2cc(C3=CCCCC3)sc2C(=O)O)CC1 (stereo not drawn) [Compound 131, 5-cyclohex-1-enyl-3-[(4-cis-methoxymethyl-cyclohexyl)-(4-trans-methyl-cyclohexanecarbonyl)-amino]-thiophene-2-carboxylic acid]",< 5 µM
6,"COCC1CCC(N(C(=O)C2CCC(C)CC2)c2cc(C3=CCCCC3)sc2C(=O)O)CC1 (stereo not drawn) [Compound 132, 5-cyclohex-1-enyl-3-[(4-trans-methoxymethyl-cyclohexyl)-(4-trans-methyl-cyclohexanecarbonyl)-amino]-thiophene-2-carboxylic acid]",< 5 µM
